Two molecules from patent US6448405B1, “Steroid receptor modulator compounds and methods” (Ligand Pharmaceuticals Incorporated, priority 1994, dated 2002) can be followed below.

Test [1] concerns the target T1, human glucocorticoid receptor alpha (GRα) (Homo sapiens, UniProt P04150).
T1 construct: made in house; crude extract used
T1 sequence (P04150 1-777): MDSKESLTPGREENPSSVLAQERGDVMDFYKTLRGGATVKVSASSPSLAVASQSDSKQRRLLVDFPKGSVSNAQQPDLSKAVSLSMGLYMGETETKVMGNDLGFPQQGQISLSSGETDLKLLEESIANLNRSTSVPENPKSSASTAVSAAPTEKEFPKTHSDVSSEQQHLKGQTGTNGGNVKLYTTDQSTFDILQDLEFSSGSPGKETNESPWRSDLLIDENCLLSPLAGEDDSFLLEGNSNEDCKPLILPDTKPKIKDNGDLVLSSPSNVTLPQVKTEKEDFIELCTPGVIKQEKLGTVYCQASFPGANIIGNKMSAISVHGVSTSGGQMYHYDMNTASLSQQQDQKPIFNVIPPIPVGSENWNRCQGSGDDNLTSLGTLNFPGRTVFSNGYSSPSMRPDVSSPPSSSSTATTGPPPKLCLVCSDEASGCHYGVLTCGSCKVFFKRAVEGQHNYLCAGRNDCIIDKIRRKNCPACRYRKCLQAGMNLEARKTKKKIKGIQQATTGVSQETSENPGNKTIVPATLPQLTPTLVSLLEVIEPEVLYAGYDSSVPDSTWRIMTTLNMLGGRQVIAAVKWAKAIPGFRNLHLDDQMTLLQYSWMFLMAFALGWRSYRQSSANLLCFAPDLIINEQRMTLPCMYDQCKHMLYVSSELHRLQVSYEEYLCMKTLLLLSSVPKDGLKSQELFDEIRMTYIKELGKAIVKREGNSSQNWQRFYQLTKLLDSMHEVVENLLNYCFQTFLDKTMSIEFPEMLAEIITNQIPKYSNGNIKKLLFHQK
In words: GR binding assay, baculovirus extract, [3H] dexamethasone. Conditions: competition with [3H] dexamethasone, 4° C., 16 hours; read-out: GR Binding K1.

Test [2] deals with T2, human progesterone receptor A form (PR-A) (Homo sapiens, UniProt P06401).
T2 sequence (P06401 1-769 isoform P06401-2): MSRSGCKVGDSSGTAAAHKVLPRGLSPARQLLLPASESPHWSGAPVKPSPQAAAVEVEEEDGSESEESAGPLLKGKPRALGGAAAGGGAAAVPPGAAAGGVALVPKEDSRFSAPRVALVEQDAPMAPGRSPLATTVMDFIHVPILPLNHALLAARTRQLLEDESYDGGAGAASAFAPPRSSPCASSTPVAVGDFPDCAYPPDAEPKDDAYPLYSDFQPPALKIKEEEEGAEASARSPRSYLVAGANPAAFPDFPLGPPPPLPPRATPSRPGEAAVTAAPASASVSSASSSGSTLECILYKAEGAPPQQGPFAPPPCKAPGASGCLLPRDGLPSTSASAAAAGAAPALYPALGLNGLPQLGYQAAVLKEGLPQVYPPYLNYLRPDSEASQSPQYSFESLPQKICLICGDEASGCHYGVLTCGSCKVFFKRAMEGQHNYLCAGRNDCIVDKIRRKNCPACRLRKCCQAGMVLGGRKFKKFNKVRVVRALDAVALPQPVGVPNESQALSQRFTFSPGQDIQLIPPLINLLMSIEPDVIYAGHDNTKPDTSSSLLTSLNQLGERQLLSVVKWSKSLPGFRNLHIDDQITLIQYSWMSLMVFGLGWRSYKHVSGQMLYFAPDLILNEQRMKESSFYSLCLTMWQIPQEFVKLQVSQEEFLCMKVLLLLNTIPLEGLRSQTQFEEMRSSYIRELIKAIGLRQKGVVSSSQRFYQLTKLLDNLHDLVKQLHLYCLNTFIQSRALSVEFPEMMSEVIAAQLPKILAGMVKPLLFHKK
Briefly: PR binding assay, baculovirus extract, [3H] progesterone. Conditions: read-out: PR Binding Ki.

As for `CC1=CC(C)(C)Nc2ccc3c(c21)C(c1ccccc1)Oc1ccccc1-3` (racemic) [Compound 161, (R/S)-1,2-Dihydro-2,2,4-trimethyl-5-phenyl-5H-chromeno[3,4-f]quinoline], the Ki in test [1] worked out at 137 nM; in test [2], 3 nM.

Turning to `CC1=CC(C)(C)Nc2ccc3c(c21)C(c1cccc(C(F)(F)F)c1)Oc1ccccc1-3` (racemic) [Compound 195, (R/S) 1,2-Dihydro-2,2,4-trimethyl-5-[3-(trifluoromethyl)phenyl]-5H-chromeno[3,4-f]quinoline], the Ki in test [1] amounted to 26 nM; in test [2], 3 nM.
